{"source": "patent US20250122191A1", "about": "“COMPOUNDS AS BCL-2 INHIBITORS” (Fochon Biosciences, Ltd, priority 2021, published 2025)", "format_in_all_cases": "cell-based", "key": {"RS4;11-BCL-2 F104L cells": {"test_system": "RS4;11-BCL-2 F104L cells", "experiment": "Cell proliferation assay (MTS), RS4;11-BCL-2 F104L engineered cells", "details": "Homo sapiens, 120 h, read-out: RS4, 11 BCL2-F104L IC50", "description": "MTS testing kit was purchased from Promega (Madison, WI, USA). The RPMI-1640, Fetal bovine serum and Penicillin-Streptomycin were purchased from BI (Biological Industries, Beit Haemek, Israel). Puromycin was purchased from Beyotime (shanghai, China). Dimethyl sulfoxide (DMSO) was purchased from Sigma (St. Louis., MO, USA). RS4;11-BCL-2 G101V (Cobioer Lot. #: CBD2021063013P4), RS4;11-BCL-2 D103E (Cobioer Lot. #: CBD2021063013P4), RS4;11-BCL-2 D103Y (Cobioer Lot. #: CBD2022012101P4) and RS4;11-BCL-2 F104L (Cobioer Lot. #: CBD2021063014P4) cells were cultured in RPMI1640 supplemented with 1 ug/mL puromycin, 100 U/mL Penicillin-Streptomycin and 10% FBS.\nTo investigate whether a compound is able to inhibit the activity of BCL-2 mutation in cells, a mechanism-based assay using engineered cell lines stably overexpressing BCL-2 mutation (RS4;11-BCL-2 G101V, RS4;11-BCL-2 D103E, RS4;11-BCL-2 D103Y, and RS4;11-BCL-2 F104L) was developed. In this assay, the inhibition of BCL-2 mutation was reflected by the inhibition of cell proliferation of engineered RS4;11 cells. Cells were plated into 96-well plates at optimized cell density (RS4;11-BCL-2 G101V: 5000 cells/well; RS4;11-BCL-2 D103E: 7500 cells/well; RS4;11-BCL-2 D103Y: 7500 cells/well; RS4;11-BCL-2 F104L: 5000 cells/well). Plates were incubated at 37° C., with 5% CO2 for 4 h (RS4;11-BCL-2 G101V, RS4;11-BCL-2 F104L) and 24 h (RS4;11-BCL-2 D103E, RS4;11-BCL-2 D103Y), respectively. Compounds were serially diluted and added to the plates with the final concentrations of 10000, 3333.3, 1111.1, 370.4, 123.5, 41.2, 13.7, 4.6 and 1.5 nM. Plates were incubated at 37° C., with 5% CO2 for 120 h (RS4; 11-BCL-2 G101V, RS4; 11-BCL-2 F104L) and 72 h (RS4;11-BCL-2 D103E, RS4;11-BCL-2 D103Y), respectively. 20 μl MTS was added into each well and the plates were incubated at 37° C., with 5% CO2 exactly for 2 h. The absorbance was measured by a microplate reader at 490 nm. IC50 values were calculated using GraphPad Prism 8.0 software."}, "RS4;11-BCL-2 G101V cells": {"test_system": "RS4;11-BCL-2 G101V cells", "experiment": "Cell proliferation assay (MTS), RS4;11-BCL-2 G101V engineered cells", "details": "Homo sapiens, 120 h, read-out: RS4, 11 BCL2-G101V IC50", "summary_of_the_method": "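Inhibition of mutant BCL-2 is inferred from reduced proliferation of RS4;11 cells stably overexpressing the mutant. Compounds are tested at 1.5–10000 nM for 120 h (G101V, F104L) or 72 h (D103E, D103Y), with MTS absorbance at 490 nm used to derive IC50.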"}, "Toledo cells": {"test_system": "Toledo cells", "experiment": "Cell proliferation assay (MTS), Toledo cells", "details": "Homo sapiens, 72 h", "summary_of_the_method": "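Toledo cells (RPMI-1640, 10% FBS) seeded at 30000 cells/well, rested 4 h, then exposed 72 h at 37 °C, 5% CO2 to compound at nine final concentrations, 1.5–10000 nM. Viability by MTS (2 h), absorbance at 490 nm. IC50 from the concentration-response.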"}}, "data": [{"smiles": "COc1cc(CN2CCN(C3CC4(CCN(c5ccc(C(=O)NS(=O)(=O)c6cnc(NC[C@H]7CC[C@](C)(O)CC7)c([N+](=O)[O-])c6)c(Oc6cc7c(F)c[nH]c7nc6OC)c5)CC4)C3)[C@H](c3ccccc3C(C)C)C2)cc(N)n1", "note": "[Example 57, 4-(2-((R)-4-((2-amino-6-methoxypyridin-4-yl)methyl)-2-(2-isopropylphenyl)piperazin-1-yl)-7-azaspiro[3.5]nonan-7-yl)-2-((3-fluoro-6-methoxy-1H-pyrrolo[2,3-b]pyridin-5-yl)oxy)-N-((6-((((1r,4r)-4-hydroxy-4-methylcyclohexyl)methyl)amino)-5-nitropyridin-3-yl)sulfonyl)benzamide]", "values": [{"measurement": "IC50", "setting": "RS4;11-BCL-2 F104L cells", "result": 1, "unit": "nM"}, {"measurement": "IC50", "setting": "RS4;11-BCL-2 G101V cells", "result": 1, "unit": "nM"}]}, {"smiles": "COc1nc2[nH]cc(F)c2cc1Oc1cc(N2CCC3(CC2)CC(N2CCC[C@H]2c2ccccc2C(C)C)C3)ccc1C(=O)NS(=O)(=O)c1cnc(NC[C@H]2CC[C@](C)(O)CC2)c([N+](=O)[O-])c1", "note": "[Example 89, 2-((3-fluoro-6-methoxy-1H-pyrrolo[2,3-b]pyridin-5-yl)oxy)-N-((6-((((1r,4r)-4-hydroxy-4-methylcyclohexyl)methyl)amino)-5-nitropyridin-3-yl)sulfonyl)-4-(2-((S)-2-(2-isopropylphenyl)pyrrolidin-1-yl)-7-azaspiro[3.5]nonan-7-yl)benzamide]", "values": [{"measurement": "IC50", "setting": "RS4;11-BCL-2 F104L cells", "result": 1, "unit": "nM"}, {"measurement": "IC50", "setting": "RS4;11-BCL-2 G101V cells", "result": 1, "unit": "nM"}]}, {"smiles": "COc1cc(CN2CCN(C3CC4(CCN(c5ccc(C(=O)NS(=O)(=O)c6cnc(NC[C@H]7CC[C@](C)(O)CC7)c([N+](=O)[O-])c6)c(Oc6cc7c(F)c[nH]c7nc6OC)c5)CC4)C3)[C@H](c3ccccc3C(C)C)C2)cc(SC)n1", "note": "[Example 63, 2-((3-fluoro-6-methoxy-1H-pyrrolo[2,3-b]pyridin-5-yl)oxy)-N-((6-((((1r,4r)-4-hydroxy-4-methylcyclohexyl)methyl)amino)-5-nitropyridin-3-yl)sulfonyl)-4-(2-((R)-2-(2-isopropylphenyl)-4-((2-methoxy-6-(methylthio)pyridin-4-yl)methyl)piperazin-1-yl)-7-azaspiro[3.5]nonan-7-yl)benzamide]", "values": [{"measurement": "IC50", "setting": "RS4;11-BCL-2 F104L cells", "result": 1, "unit": "nM"}, {"measurement": "IC50", "setting": "RS4;11-BCL-2 G101V cells", "result": 1, "unit": "nM"}]}, {"smiles": "COc1nc2[nH]cc(F)c2cc1Oc1cc(N2CCC3(CC2)CC(N2CCN(Cc4ccnc(OC(F)F)c4)C[C@H]2c2ccccc2C(C)C)C3)ccc1C(=O)NS(=O)(=O)c1cnc(NC[C@H]2CC[C@](C)(O)CC2)c([N+](=O)[O-])c1", "note": "[Example 67, 4-(2-((R)-4-((2-(difluoromethoxy)pyridin-4-yl)methyl)-2-(2-isopropylphenyl)piperazin-1-yl)-7-azaspiro[3.5]nonan-7-yl)-2-((3-fluoro-6-methoxy-1H-pyrrolo[2,3-b]pyridin-5-yl)oxy)-N-((6-((((1r,4r)-4-hydroxy-4-methylcyclohexyl)methyl)amino)-5-nitropyridin-3-yl)sulfonyl)benzamide]", "values": [{"measurement": "IC50", "setting": "RS4;11-BCL-2 F104L cells", "result": 1, "unit": "nM"}, {"measurement": "IC50", "setting": "RS4;11-BCL-2 G101V cells", "result": 1, "unit": "nM"}]}, {"smiles": "COc1ccc(CN2CCN(C3CC4(CCN(c5ccc(C(=O)NS(=O)(=O)c6cnc(NC[C@H]7CC[C@](C)(O)CC7)c([N+](=O)[O-])c6)c(Oc6cc7c(F)c[nH]c7nc6OC)c5)CC4)C3)[C@H](c3ccccc3C(C)C)C2)cc1F", "note": "[Example 97, 4-(2-((R)-4-(3-fluoro-4-methoxybenzyl)-2-(2-isopropylphenyl)piperazin-1-yl)-7-azaspiro[3.5]nonan-7-yl)-2-((3-fluoro-6-methoxy-1H-pyrrolo[2,3-b]pyridin-5-yl)oxy)-N-((6-((((1r,4r)-4-hydroxy-4-methylcyclohexyl)methyl)amino)-5-nitropyridin-3-yl)sulfonyl)benzamide]", "values": [{"measurement": "IC50", "setting": "Toledo cells", "result": 1, "unit": "nM"}, {"measurement": "IC50", "setting": "RS4;11-BCL-2 F104L cells", "result": 1, "unit": "nM"}]}, {"smiles": "COc1nc2[nH]cc(F)c2cc1Oc1cc(N2CCC3(CC2)CC(N2CCN(Cc4ccc(S(C)(=N)=O)cc4)C[C@H]2c2ccccc2C(C)C)C3)ccc1C(=O)NS(=O)(=O)c1cnc(NC[C@H]2CC[C@](C)(O)CC2)c([N+](=O)[O-])c1", "note": "(stereo partly drawn) [Example 336, 2-((3-fluoro-6-methoxy-1H-pyrrolo[2,3-b]pyridin-5-yl)oxy)-N-((6-((((1r,4r)-4-hydroxy-4-methylcyclohexyl)methyl)amino)-5-nitropyridin-3-yl)sulfonyl)-4-(2-((2R)-2-(2-isopropylphenyl)-4-(4-(S-methylsulfonimidoyl)benzyl)piperazin-1-yl)-7-azaspiro[3.5]nonan-7-yl)benzamide]", "values": [{"measurement": "IC50", "setting": "Toledo cells", "result": 1, "unit": "nM"}, {"measurement": "IC50", "setting": "RS4;11-BCL-2 F104L cells", "result": 1, "unit": "nM"}]}, {"smiles": "COc1nc2[nH]cc(F)c2cc1Oc1cc(N2CCC3(CC2)CC(N2CCN(Cc4ccnc(Cl)c4)C[C@H]2c2ccccc2C(C)C)C3)ccc1C(=O)NS(=O)(=O)c1cnc(NC[C@H]2CC[C@](C)(O)CC2)c([N+](=O)[O-])c1", "note": "[Example 357, 4-(2-((R)-4-((2-chloropyridin-4-yl)methyl)-2-(2-isopropylphenyl)piperazin-1-yl)-7-azaspiro[3.5]nonan-7-yl)-2-((3-fluoro-6-methoxy-1H-pyrrolo[2,3-b]pyridin-5-yl)oxy)-N-((6-((((1r,4r)-4-hydroxy-4-methylcyclohexyl)methyl)amino)-5-nitropyridin-3-yl)sulfonyl)benzamide]", "values": [{"measurement": "IC50", "setting": "Toledo cells", "result": 1, "unit": "nM"}, {"measurement": "IC50", "setting": "RS4;11-BCL-2 F104L cells", "result": 3, "unit": "nM"}]}, {"smiles": "COc1ccc(CN2CCN(C3CC4(CCN(c5ccc(C(=O)NS(=O)(=O)c6cnc(NC[C@H]7CC[C@](C)(O)CC7)c([N+](=O)[O-])c6)c(Oc6cnc7[nH]ccc7c6)c5)CC4)C3)[C@H](c3ccccc3C(C)C)C2)c2cc(C)oc12", "note": "[Example 66, 2-((1H-pyrrolo[2,3-b]pyridin-5-yl)oxy)-N-((6-((((1r,4r)-4-hydroxy-4-methylcyclohexyl)methyl)amino)-5-nitropyridin-3-yl)sulfonyl)-4-(2-((R)-2-(2-isopropylphenyl)-4-((7-methoxy-2-methylbenzofuran-4-yl)methyl)piperazin-1-yl)-7-azaspiro[3.5]nonan-7-yl)benzamide]", "values": [{"measurement": "IC50", "setting": "RS4;11-BCL-2 F104L cells", "result": 1, "unit": "nM"}, {"measurement": "IC50", "setting": "RS4;11-BCL-2 G101V cells", "result": 1, "unit": "nM"}]}, {"smiles": "CCOc1cc(CN2CCN(C3CC4(CCN(c5ccc(C(=O)NS(=O)(=O)c6cnc(NC[C@H]7CC[C@](C)(O)CC7)c([N+](=O)[O-])c6)c(Oc6cc7c(F)c[nH]c7nc6OC)c5)CC4)C3)[C@H](c3ccccc3C(C)C)C2)ccn1", "note": "[Example 65, 4-(2-((R)-4-((2-ethoxypyridin-4-yl)methyl)-2-(2-isopropylphenyl)piperazin-1-yl)-7-azaspiro[3.5]nonan-7-yl)-2-((3-fluoro-6-methoxy-1H-pyrrolo[2,3-b]pyridin-5-yl)oxy)-N-((6-((((1r,4r)-4-hydroxy-4-methylcyclohexyl)methyl)amino)-5-nitropyridin-3-yl)sulfonyl)benzamide]", "values": [{"measurement": "IC50", "setting": "RS4;11-BCL-2 F104L cells", "result": 1, "unit": "nM"}, {"measurement": "IC50", "setting": "RS4;11-BCL-2 G101V cells", "result": 1, "unit": "nM"}]}, {"smiles": "COc1cc(CN2CCN(C3CC4(CCN(c5ccc(C(=O)NS(=O)(=O)c6cnc(NC[C@H]7CC[C@](C)(O)CC7)c([N+](=O)[O-])c6)c(Oc6cc7c(F)c[nH]c7nc6OC)c5)CC4)C3)[C@H](c3ccccc3C(C)C)C2)cc2c1OCCC2", "note": "[Example 103, 2-((3-fluoro-6-methoxy-1H-pyrrolo[2,3-b]pyridin-5-yl)oxy)-N-((6-((((1r,4r)-4-hydroxy-4-methylcyclohexyl)methyl)amino)-5-nitropyridin-3-yl)sulfonyl)-4-(2-((R)-2-(2-isopropylphenyl)-4-((8-methoxychroman-6-yl)methyl)piperazin-1-yl)-7-azaspiro[3.5]nonan-7-yl)benzamide]", "values": [{"measurement": "IC50", "setting": "Toledo cells", "result": 1, "unit": "nM"}, {"measurement": "IC50", "setting": "RS4;11-BCL-2 F104L cells", "result": 1, "unit": "nM"}]}]}
